The record followed here is patent US20260274853A1, “BIFUNCTIONAL COMPOUNDS CONTAINING PYRIMIDINE DERIVATIVES FOR DEGRADING CYCLIN-DEPENDENT KINASE 2 VIA UBIQUITIN PROTEASOME PATHWAY” (NIKANG THERAPEUTICS, INC., priority 2022, published 2026).

In test [1] the target is T1, CDK2 (Homo sapiens, UniProt P24941).
T1 construct: High-Throughput Measurement of Cellular Endogenous CDK2; endogenous in cells; host or cells: OVCAR3
As to the kind of experiment: CDK2 HTRF assay: cellular endogenous CDK2 level in OVCAR3 cells. The class given is cell-based. To be noted: 24 hours compound treatment, read-out: DC50 (half maximal degradation concentration of CDK2). The method, then: Effects of compounds on cellular CDK2 level can be monitored by a high-throughput HTRF assay or traditional Western Blot assay.
To determine half maximal degradation concentration (DC50) values of compounds, cellular CDK2 level was measured in 96-well format using HTRF total CDK2 cellular kit (Cat #64CDK2TPEG) from Cisbio.
On Day 1, OVCAR3 cells were seeded into 96-well tissue-culture treated plates at 20,000 cells/well in 200 μL and incubated overnight at 37° C. in CO2 atmosphere. On Day 2 cells were treated with compounds at concentration ranging from 0.3 to 10,000 nM using HP D300 digital dispenser. 24 hours after compound treatment, cell culture media was removed by flicking the plate and tapping the plate against clean paper towel. Immediately 30 μL 1× lysis buffer was supplemented from the kit and the plate was incubated at room temperature on shaker for 30 min. After homogenization by pipetting up and down, 8 μL cell lysate from 96-well cell culture plate was transferred to 384-well small volume white detection plate. 2 μL premixed detection solution was added and the plate was covered with sealer. To prepare the detection solution, d2 conjugated-CDK2 antibody and Eu-cryptate conjugated CDK2 antibody were diluted into detection buffer following manufacturer's instruction. Detection plates were incubated overnight at room temperature and read on ClarioStar (BMG Labtech) in TR-FRET mode (665 nM and 620 nM). The TR-FRET ratio (665 nM/620 nM) was plotted against the compound concentration and normalized to DMSO controls. Half maximal degradation concentration (DC50) values were calculated with a four-parameter logistic fit using GraphPad Prism (version 8; La Jolla, CA).
In the table below, A indicates a DC50 of less than 0.1 μM; B indicates a DC50 of greater than or equal to 0.1 μM but less than 0.5 μM; C indicates a DC50 of greater than or equal to 0.5 μM but less than 1 μM; and D indicates a DC50 of greater than or equal to 1 μM but less than 10 μM.
A general note: Time-resolved FRET reads energy transfer from a long-lived donor to a nearby acceptor.

For test [2], the target named is T1, CDK2. Description: Inhibition of CDK2: phospho-Rb (S807/811) HTRF measurement in OVCAR3 cells. In kind it is cell-based. To be noted: 24 h compound treatment, read-out: pRb (nM), IC50 in pRB(S807/811) assay.

For `O=C1CCC(N2C(=O)c3cc(F)c(N4CCN(Cc5cccc(S(=O)(=O)N6CCC(Nc7ncc(C(F)(F)F)c(-c8cnn(CC(F)F)c8)n7)CC6)c5)CC4)cc3C2=O)C(=O)N1` (stereo not shown) [Example 22, 5-(4-(3-((4-((4-(1-(2,2-difluoroethyl)-1H-pyrazol-4-yl)-5-(trifluoromethyl)-pyrimidin-2-yl)amino)-piperidin-1-yl)sulfonyl)benzyl)piperazin-1-yl)-2-(2,6-dioxopiperidin-3-yl)-6-fluoroiso-indoline-1,3-dione], the DC50 on CDK2 [1] was less than 100 nM. In addition, the IC50 at CDK2 [2] was 100 to 500 nM.
Consider `O=C1CCC(c2ccc(N3CCN(Cc4cccc(S(=O)(=O)N5CCC(Nc6ncc(C(F)(F)F)c(-c7cnn(CC(F)(F)F)c7)n6)CC5)c4)CC3)c(C(F)(F)F)c2)C(=O)N1` (stereo not shown) [Example 23, 3-(4-(4-(3-((4-((4-(1-(2,2,2-trifluoro-ethyl)-1H-pyrazol-4-yl)-5-(trifluoro-methyl)pyrimidin-2-yl)amino)-piperidin-1-yl)sulfonyl)benzyl)-piperazin-1-yl)-3-(trifluoromethyl)-phenyl)piperidine-2,6-dione], for which, on CDK2 [1], the DC50 is 100 to 500 nM. In addition, the IC50 at CDK2 [2] is 100 to 500 nM.
On to `CC(C)(O)Cn1cc(-c2nc(NC3CCN(S(=O)(=O)c4cccc(CN5CCN(c6ccc(N7CCC(=O)NC7=O)cc6)CC5)c4)CC3)ncc2C(F)(F)F)cn1` [Example 24, 1-(4-(4-(3-((4-((4-(1-(2-hydroxy-2-methylpropyl)-1H-pyrazol-4-yl)-5-(trifluoromethyl)pyrimidin-2-yl)amino)-piperidin-1-yl)sulfonyl)benzyl)-piperazin-1-yl)phenyl)dihydro-pyrimidine-2,4(1H,3H)-dione], for which, at CDK2 [1], the DC50 was less than 100 nM. Besides, the IC50 at CDK2 [2] was less than 100 nM.
With `O=C1CCN(c2ccc(N3CCN(Cc4cccc(S(=O)(=O)N5CCC(Nc6ncc(C(F)(F)F)c(-c7cnn(CC(F)(F)F)c7)n6)CC5)c4)CC3)cc2)C(=O)N1` [Example 25, 1-(4-(4-(3-((4-((4-(1-(2,2,2-trifluoro-ethyl)-1H-pyrazol-4-yl)-5-(trifluoro-methyl)pyrimidin-2-yl)amino)-piperidin-1-yl)sulfonyl)benzyl)piperazin-1-yl)-phenyl)dihydro-pyrimidine-2,4(1H,3H)-dione], the DC50 on CDK2 [1] was less than 100 nM. In addition, at CDK2 [2], the IC50 is less than 100 nM.
In the case of `Cn1c(S(=O)(=O)N2CCC(Nc3ncc(C(F)(F)F)c(-c4cnn(CC(F)(F)F)c4)n3)CC2)cnc1CN1CCN(c2ccc(N3CCC(=O)NC3=O)cc2)CC1` [Example 26, 1-(4-(4-((1-methyl-5-((4-((4-(1-(2,2,2-trifluoroethyl)-1H-pyrazol-4-yl)-5-(trifluoromethyl)pyrimidin-2-yl)amino)-piperidin-1-yl)sulfonyl)-1H-imidazol-2-yl)methyl)piperazin-1-yl)phenyl)dihydro-pyrimidine-2,4(1H,3H)-dione], the DC50 at CDK2 [1] is less than 100 nM. Further, at CDK2 [2], the IC50 was 100 to 500 nM.
Taken in the same sequence, the figures for `Cn1c(S(=O)(=O)N2CCC(Nc3ncc(C(F)(F)F)c(-c4cnn(CC(F)(F)F)c4)n3)CC2)cnc1CN1CCN(c2cc3c(cc2F)C(=O)N(C2CCC(=O)NC2=O)C3=O)CC1` (stereo not shown) [Example 30, 2-(2,6-dioxopiperidin-3-yl)-5-fluoro-6-(4-((1-methyl-5-((4-((4-(1-(2,2,2-trifluoroethyl)-1H-pyrazol-4-yl)-5-(trifluoromethyl)pyrimidin-2-yl)amino)-piperidin-1-yl)sulfonyl)-1H-imidazol-2-yl)methyl)piperazin-1-yl)isoindoline-1,3-dione] were less than 100 nM and 100 to 500 nM.
As to `O=C1CCC(N2C(=O)c3cc(F)c(N4CC5(CN(Cc6cccc(S(=O)(=O)N7CCC(Nc8ncc(C(F)(F)F)c(-c9cnn(CC(F)(F)F)c9)n8)CC7)c6)C5)C4)cc3C2=O)C(=O)N1` (stereo not shown) [Example 31, 2-(2,6-dioxopiperidin-3-yl)-5-fluoro-6-(6-(3-((4-((4-(1-(2,2,2-trifluoroethyl)-1H-pyrazol-4-yl)-5-(trifluoromethyl)-pyrimidin-2-yl)amino)piperidin-1-yl)-sulfonyl)benzyl)-2,6-diazaspiro[3.3]-heptan-2-yl)isoindoline-1,3-dione], the DC50 on CDK2 [1] is less than 100 nM. Besides, the IC50 at CDK2 [2] was less than 100 nM.
For the molecule `Cn1cc(-c2nc(NC3CCN(S(=O)(=O)c4cccc(CN5CCC(c6ccc7c(N8CCC(=O)NC8=O)nn(C)c7c6)CC5)c4)CC3)ncc2C(F)(F)F)cn1` [Example 33, 1-(1-methyl-6-(1-(3-((4-((4-(1-methyl-1H-pyrazol-4-yl)-5-(trifluoromethyl)-pyrimidin-2-yl)amino)piperidin-1-yl)-sulfonyl)benzyl)piperidin-4-yl)-1H-indazol-3-yl)dihydropyrimidine-2,4(1H,3H)-dione], the DC50 at CDK2 [1] is less than 100 nM. The IC50 at CDK2 [2] was less than 100 nM.
On to `C[C@@H]1CN(S(=O)(=O)c2cccc(CN3CCC(c4ccc5c(N6CCC(=O)NC6=O)nn(C)c5c4)CC3)c2)CC[C@@H]1Nc1ncc(C(F)(F)F)c(-c2cnn(CC(F)(F)F)c2)n1` [Example 34, 1-(1-methyl-6-(1-(3-(((3R,4S)-3-methyl-4-((4-(1-(2,2,2-trifluoroethyl)-1H-pyrazol-4-yl)-5-(trifluoromethyl)-pyrimidin-2-yl)amino)piperidin-1-yl)-sulfonyl)benzyl)piperidin-4-yl)-1H-indazol-3-yl)dihydropyrimidine-2,4(1H,3H)-dione], for which, on CDK2 [1], the DC50 was less than 100 nM. The IC50 at CDK2 [2] lay within 100 to 500 nM.
Regarding `O=C1CCN(c2ccc(N3CCN(Cc4cccc(S(=O)(=O)N5CCC(Nc6ncc(C(F)(F)F)c(-c7cnn(CC(F)(F)F)c7)n6)CC5)c4)CC3)nc2)C(=O)N1` [Example 41, 1-(6-(4-(3-((4-((4-(1-(2,2,2-trifluoro-ethyl)-1H-pyrazol-4-yl)-5-(trifluoro-methyl)pyrimidin-2-yl)amino)-piperidin-1-yl)sulfonyl)benzyl)-piperazin-1-yl)pyridin-3-yl)dihydro-pyrimidine-2,4(1H,3H)-dione], the DC50 at CDK2 [1] was less than 100 nM. For the same molecule, on CDK2 [2], the IC50 was less than 100 nM.
`Cn1nc(N2CCC(=O)NC2=O)c2ccc(C3CCN(CC4CCN(c5cccc(S(=O)(=O)N6CCC(Nc7ncc(C(F)(F)F)c(-c8cnn(CC(F)(F)F)c8)n7)CC6)c5)CC4)CC3)cc21` [Example 50, 1-(1-methyl-6-(1-((1-(3-((4-((4-(1-(2,2,2-trifluoroethyl)-1H-pyrazol-4-yl)-5-(trifluoromethyl)pyrimidin-2-yl)amino)-piperidin-1-yl)sulfonyl)phenyl)-piperidin-4-yl)methyl)piperidin-4-yl)-1H-indazol-3-yl)dihydropyrimidine-2,4(1H,3H)-dione]: the DC50 at CDK2 [1] was less than 100 nM. At CDK2 [2], the IC50 is less than 100 nM.
As to `Cn1nc(N2CCC(=O)NC2=O)c2ccc(C3CCN(Cc4cc(S(=O)(=O)N5CCC(Nc6ncc(C(F)(F)F)c(-c7cnn(CC(F)(F)F)c7)n6)CC5)ccc4F)CC3)cc21` [Example 61, 1-(6-(1-(2-fluoro-5-((4-((4-(1-(2,2,2-trifluoroethyl)-1H-pyrazol-4-yl)-5-(trifluoromethyl)pyrimidin-2-yl)-amino)piperidin-1-yl)sulfonyl)benzyl)-piperidin-4-yl)-1-methyl-1H-indazol-3-yl)dihydropyrimidine-2,4(1H,3H)-dione], at CDK2 [1], the DC50 was less than 100 nM. In addition, the IC50 on CDK2 [2] was less than 100 nM.
On to `Cc1ncsc1-c1ccc([C@H](C)NC(=O)[C@@H]2C[C@@H](O)CN2C(=O)[C@@H](NC(=O)CC2CCN(Cc3cccc(S(=O)(=O)N4CCC(Nc5ncc(C(F)(F)F)c(-c6cnn(CC(F)(F)F)c6)n5)CC4)c3)CC2)C(C)(C)C)cc1` [Example 62, (2S,4R)-1-((S)-3,3-dimethyl-2-(2-(1-(3-((4-((4-(1-(2,2,2-trifluoroethyl)-1H-pyrazol-4-yl)-5-(trifluoromethyl)-pyrimidin-2-yl)amino)piperidin-1-yl)-sulfonyl)benzyl)piperidin-4-yl)-acetamido)butanoyl)-4-hydroxy-N-((S)-1-(4-(4-methylthiazol-5-yl)phenyl)-ethyl)pyrrolidine-2-carboxamide], for which the DC50 at CDK2 [1] was less than 100 nM. On CDK2 [2], the IC50 is less than 100 nM.
As to `Cn1nc(N2CCC(=O)NC2=O)c2ccc(C3CCN(Cc4cccc(S(=O)(=O)N5CCC(Nc6ncc(C(F)(F)F)c(-c7cnn(CC(F)(F)F)c7)n6)CC5)c4)CC3)c(F)c21` [Example 64, 1-(7-fluoro-1-methyl-6-(1-(3-((4-((4-(1-(2,2,2-trifluoroethyl)-1H-pyrazol-4-yl)-5-(trifluoromethyl)pyrimidin-2-yl)amino)-piperidin-1-yl)sulfonyl)-benzyl)-piperidin-4-yl)-1H-indazol-3-yl)dihydro-pyrimidine-2,4(1H,3H)-dione], the DC50 at CDK2 [1] was less than 100 nM. For the same molecule, the IC50 at CDK2 [2] is less than 100 nM.
